The test system of one experiment is quinone reductase. Nature of the experiment: Quinone reductase activity induction in Hepa1c1c7 liver cancer cells. In kind it is cell-based, white rat. Conditions: sulforaphane at 5 μM, 5 × 10^3 cell/wells. The procedure:
For the ethanol extract and the ingredients of the isolated fractions, the quinone reductase activity induction was analyzed. In order to measure the quinone reductase activity induction effect of the fractions obtained from the chlorella, the experiment was conducted using a liver cancer cell line (Hepa1c1c7) of a white rat.
First of all, a-MEM (minimum essential medium)/10% FBS (fetal bovine serum) solution was mixed with a liver cell culture solution to make the cell number of 1×10^5 cells/Ml, and the resulting solution 100 μl was added to a 96-well plate followed by incubating for 24 hours under a condition of 5% CO2 and 37° C. […]
The protein solution 50 μl and reaction solution A (49 Ml 25 mM Tris buffer, 34 mg BSA, 0.34 Ml 1.5% tween-20 solution, 0.34 Ml co-enzyme solution, 100 unit glucose-6-phosphate dehydrogenase, 15 mg MTT, 50 μl 50 mM menadione) 200 μl were mixed together, and the absorbance increasing rate was measure at 610 nm using a microplate reader. The protein amount was measured at 595 nm using Bradford solution. […] The quinone reductase activity of the extract and the fraction was expressed as CD (the concentration of the sample where the quinone reductase activity of the sample-treated cell becomes twice).

Experiment [1] relates to liver injury-induced animal models. Nature of the experiment: Contents of triglyceride, total cholesterol and HDL-cholesterol in blood serum of ethanol liver-injured animal model. Conditions: EtOH +, 10 mg/kg, mean ± SEM. The class given is in vivo, SD rats. The procedure:
The chlorella ethanol extract (CH) was used. The CH was dissolved in ethanol, and mixed with AlN-76 diet to be a daily intake of 50 mg or 100 mg per kg of a test animal weight and supplied to the animal. Specific pathogen free male SD rats of 5-week-old were purchased from Orient Bio Inc. (Seongnam, South Korea). After inspection and adaptation for 1 week, healthy animals without weight loss were selected and used for the test. Test animals were bred under a condition of temperature: 23±3, relative humidity: 50±10%, air change rate: 10-15 times/hour, lighting time: 12 hours (08:00-20:00) and luminous intensity: 150-300 Lux. During adaptation period of 1 week, the test animals were freely fed with solid feed for test animal (Superfeed Co., Ltd., Wonju, South Korea) and drinking water. After the adaptation period of 1 week, healthy animals were selected, and divided to 5 groups by randomized block design. Namely, those were divided into a control group not treated with ethanol and the test material, a group orally administered with ethanol, a group orally administered with ethanol and fed with CH 50 mg/kg, a group orally administered with ethanol and fed with CH 100 mg/kg and a group orally administered with ethanol and fed with sulforaphane 10 mg/kg. The primary feed used in this experiment, AlN-76 was purchased from Research Diets, Inc. (New Brunswick, N.J., USA), and its composition is listed in Table 1. Test feeds were prepared by mixing each test compounds to the feed to the daily feeding amount of 50 or 100 mg per 1 kg of test animal weight as described above, and fed. […] The feeds containing the test compounds were fed for 10 days after 17th day of the ethanol administration, and the ethanol was orally administered together with the feed continuously. During the test period, drinking water was freely supplied. The feed intake was measured every two days, and body weight was measured every week from the day of starting the oral administration of ethanol (0 day) to the final day of the experiment. […]

The test system is the same in experiment [2]. Put plainly: SOD, CAT, GPx, ADH and ALDH activities in liver cytosol of ethanol liver-injured animal model. The conditions noted are these: 10 mg/kg in feed, 10 days. In kind it is in vivo, SD rats.
Experimental: After inspection and adaptation for 1 week, healthy animals without weight loss were selected and used for the test. Test animals were bred under a condition of temperature: 23±3, relative humidity: 50±10%, air change rate: 10-15 times/hour, lighting time: 12 hours (08:00-20:00) and luminous intensity: 150-300 Lux. During adaptation period of 1 week, the test animals were freely fed with solid feed for test animal (Superfeed Co., Ltd., Wonju, South Korea) and drinking water. After the adaptation period of 1 week, healthy animals were selected, and divided to 5 groups by randomized block design. […] Test feeds were prepared by mixing each test compounds to the feed to the daily feeding amount of 50 or 100 mg per 1 kg of test animal weight as described above, and fed. […] The feed intake was measured every two days, and body weight was measured every week from the day of starting the oral administration of ethanol (0 day) to the final day of the experiment.
1 g liver tissue was homogenized with 0.25 M sucrose (pH 7.0). […] The activities of superoxide dismutase (SOD), catalase (CAT) and glutathione peroxidase (GPx) were measured using a kit of Cayman chemical company (Ann Arbor, Mich., USA). The activity of alcohol dehydrogenase (ADH) was measured by adding 0.2 M ethanol 10 μl, 0.05 M semicarbazide HCl 10 μl and 0.1 M NAD (in 0.01 M HCl) 10 μl to 0.1 M Tris-HCl buffer (pH 8.5) 160 μl followed by adding the cytosolic zymogen 10 μl thereto at 340 nm. […] The activity of acetaldehyde dehydrogenase (ALDH) was measured by adding 1 M KCl 10 μl, 0.1 M pyrazole 10 μl, 1 M 2-mercaptoethanol 10 μl, 0.1 M propione aldehyde 10 μl and 0.1 M NAD (in 0.01 M HCl) 10 μl to 0.2 M Tris-HCl buffer (pH 8.3) 150 μl followed by adding the cytosolic zymogen 10 μl at 340 nm, and the enzyme protein assay was conducted by a method of Lowry et al. (Lowry O H et al., 1957, J Biol Chem 193: 265-276).
Experiment [3] has the same test system. Put plainly: Content of lipid peroxide in liver microsome of ethanol liver-injured animal model. The class given is in vivo, SD rats. Conditions: EtOH +, 10 mg/kg, mean ± SEM.
Experimental: 1 g Liver tissue was homogenized in 0.25 M sucrose (pH 7.0). […] The content of the lipid peroxide was measured by a lipid peroxide measuring kit (BioAssay Systems, Hayward, Calif., USA), and the protein quantification was conducted by a method of Lowry et al. (Lowry O H et al., 1957, J Biol Chem 193: 265-276).
For experiment [4] the test system is unchanged. Nature of the experiment: Contents of total lipid, triglyceride and total cholesterol in liver tissue of ethanol liver-injured animal model. Conditions: 10 mg/kg. In kind it is in vivo, SD rats.
Experimental: Specific pathogen free male SD rats of 5-week-old were purchased from Orient Bio Inc. (Seongnam, South Korea). After inspection and adaptation for 1 week, healthy animals without weight loss were selected and used for the test. Test animals were bred under a condition of temperature: 23±3, relative humidity: 50±10%, air change rate: 10-15 times/hour, lighting time: 12 hours (08:00-20:00) and luminous intensity: 150-300 Lux. During adaptation period of 1 week, the test animals were freely fed with solid feed for test animal (Superfeed Co., Ltd., Wonju, South Korea) and drinking water. After the adaptation period of 1 week, healthy animals were selected, and divided to 5 groups by randomized block design. […] Test feeds were prepared by mixing each test compounds to the feed to the daily feeding amount of 50 or 100 mg per 1 kg of test animal weight as described above, and fed. In order to induce the fatty liver by ethanol, 20% ethyl alcohol 5 g per kg (body weight) was orally administered twice a day (morning and afternoon) for 16 days. The feeds containing the test compounds were fed for 10 days after 17th day of the ethanol administration, and the ethanol was orally administered together with the feed continuously. During the test period, drinking water was freely supplied. The feed intake was measured every two days, and body weight was measured every week from the day of starting the oral administration of ethanol (0 day) to the final day of the experiment.
Total lipid content in the liver tissue was analyzed by homogenizing 1 g liver tissue in a saline 3 ml followed by homogenizing again with CM solution (Chloroform:Methanol=2:1) 9 ml. The homogenate was centrifuged at 3,000 rpm for 10 min, and the lower layer was collected and evaporated followed by measuring the total lipid content using a precision scale. The measured total lipid was dissolved in isopropanol, and the triglyceride content and the total choresterol content were measured by a quantitative analysis kit using an enzyme method (Asan Pharm. Co., Ltd., Hwaseong, South Korea).
The test system is the same in experiment [5]. Nature of the experiment: ALT, AST, γ-GT and LDH contents in blood serum of ethanol liver-injured animal model. In kind it is in vivo, SD rats. Conditions: 10 mg/kg in feed, 10 days. The procedure: The chlorella ethanol extract (CH) was used. The CH was dissolved in ethanol, and mixed with AlN-76 diet to be a daily intake of 50 mg or 100 mg per kg of a test animal weight and supplied to the animal. Specific pathogen free male SD rats of 5-week-old were purchased from Orient Bio Inc. (Seongnam, South Korea). After inspection and adaptation for 1 week, healthy animals without weight loss were selected and used for the test. Test animals were bred under a condition of temperature: 23±3, relative humidity: 50±10%, air change rate: 10-15 times/hour, lighting time: 12 hours (08:00-20:00) and luminous intensity: 150-300 Lux. During adaptation period of 1 week, the test animals were freely fed with solid feed for test animal (Superfeed Co., Ltd., Wonju, South Korea) and drinking water. […] The feed intake was measured every two days, and body weight was measured every week from the day of starting the oral administration of ethanol (0 day) to the final day of the experiment. […] To analyze contents of ALT, AST, γ-GT and LDH in a blood serum isolated from the blood collected on the day of the autopsy, alanine aminotransferase (ALT), aspartate aminotransferase (AST), gamma-glutamyl transferase (γ-GT) and lactic dehydrogenase (LDH) were analyzed using a blood biochemistry analyzer (KoneLab 20, Thermo Fisher Scientific, Waltham, […]).

Setting [6] is: did not show the significant difference.

Several values for one entry are separate records, joined by “and”; a condition that tells them apart may be missing. Identical values can stand only once.

This is an account of results in patent US10568918B2, “Composition comprising chlorella extract for preventing or treating liver disease” (GANGNEUNG-WONGJU NATIONAL UNIVERSITY INDUSTRY ACADEMY …, priority 2011, dated 2020).

Consider `C[S+]([O-])CCCCN=C=S` (centres unmarked) [Sulforaphane], for which the “CD (concentration of the sample where the quinone reductase activity of the sample-treated cell becomes twice)” value in the experiment on quinone reductase is 1.94 µg/mL and 2.48 µg/mL and 2.07 µg/mL. Besides, in experiment [1], the “HDL-cholesterol” value is on record as 33.39 mg/dL, the “Total cholesterol” value is given as 94.25 mg/dL and the “Triglyceride” value is given as 126.11 mg/dL. The “liver cytosol SOD activity vs ethanol administration group” value in experiment [2] is “increased”. Besides, in experiment [2] (setting [6]), the “liver cytosol CAT activity vs ethanol administration group” value is reported as “increased” and the “liver cytosol GPx activity vs group orally administered with ethanol” value is on record as “increased”. The “Lipid peroxide (μM/mg protein)” value in experiment [3] came out at 2.07 μM/mg protein. Moreover, the “total liver cholesterol contents vs group orally administered with ethanol” value in experiment [4] (showed the significant difference) was “decreased”. Also, in experiment [4] (EtOH +, mean ± SEM), the “Total cholesterol (mg/g liver)” value stood at 4.39 mg/g liver, the “Total lipid (mg/g liver)” value was found to be 48.26 mg/g liver and the “Triglyceride (mg/g liver)” value is on record as 13.28 mg/g liver. The “serum γ-GT vs group orally administered with ethanol only” value in experiment [5] is on record as “did not show the significant difference”. Further, in experiment [5] (with the significant difference), the “serum LDH content vs group orally administered with ethanol” value is reported as “decreased”.
